# Measurements: patent US9216964B2, “Hedgehog pathway modulators” (Novartis AG, priority 2008, dated 2015)
# System: hedgehog signaling pathway
# Assay: Gli-Luc Reporter Assay for Hh Pathway Inhibition (TMHh-12 cells, pTA-8×Gli-Luc reporter)
# Type: cell-based, Mouse
# Settings: Mus musculus, TMHh12, Ag1.5 1 nM; read-out: Hedgehog Inhibition IC50 (nM) (Ag1.5 1 nM)
# Procedure, shortened: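 Mouse TM3 cells stably carrying an 8×Gli-firefly luciferase reporter, in 2% FBS medium; pathway activated with recombinant mouse Shh (8 μg/mL) or Smo agonist, compounds added at varying concentrations for 48 h. Luminescence read; IC50 at 50% signal reduction. Toxicity checked in TM3 cells (CellTiter-Glo) or constitutive-luciferase TM3-Luc cells.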
row,IC50,Compound
1,263 nM,CS(=O)(=O)N1CCc2c(cccc2Nc2ccc(Cl)c(-c3nc(-c4ccccc4)co3)c2)C1 [Compound 96]
2,3.8 nM,CN(C)c1ccc2nc(-c3cc(Nc4cccc5c4CCN(S(C)(=O)=O)C5)ccc3Cl)[nH]c2c1 [Compound 16]
3,0.45 nM,CC(CO)(CO)C(=O)N1CCc2c(cccc2Nc2ccc(Cl)c(-c3ncc(-c4ccccc4)[nH]3)c2)C1 [Compound 2]
4,1.6 nM,NS(=O)(=O)N1CCc2c(cccc2Nc2ccc(Cl)c(-c3ncc(-c4ccccc4)[nH]3)c2)C1 [Compound 13]
5,0.7 nM,O=C1CCC(N2CCc3c(cccc3Nc3ccc(Cl)c(-c4ncc(-c5ccccc5)[nH]4)c3)C2)CC1 [Compound 33]
6,0.1 nM,Cc1ccc(Nc2cccc3c2CCN(S(C)(=O)=O)C3)cc1-c1nc2ccccc2[nH]1 [Compound 5]
7,362 nM,Cc1ccc(Nc2cccc3c2CCN(S(C)(=O)=O)C3)cc1-c1ccccc1 [Compound 115]

# Same assay, conditions: Mus musculus, TMHh12, enzymatic and cellular assays for the inhibition of hedgehog signaling pathways; read-out: IC50 Ranges
row,Compound,IC50
1,CCOc1ccc(-c2cc(Nc3cccc4c3CCN(CCS(=O)(=O)CC)C4)ccc2C)nn1 [Compound 297],1 to 10 nM
2,Cc1ccc(-c2cc(Nc3cccc4c3CCN(S(C)(=O)=O)C4)ccc2C)nc1 [Compound 169],0.001 to 1 nM
3,Cc1ccc(Nc2cccc3c2CCN(S(C)(=O)=O)C3)cc1-c1ncc(-c2cncnc2)[nH]1 [Compound 59],1 to 10 nM
4,Cc1ccc(-c2cc(Nc3cccc4c3CCN(CCS(C)(=O)=O)C4)ccc2C)nc1 [Compound 223],0.001 to 1 nM
5,Cc1ccc(-c2cc(Nc3ncnc4c3CCN(S(C)(=O)=O)C4)ccc2C)nc1 [Compound 248],1 to 10 nM
6,Cc1ccc(Nc2cccc3c2CCN(CCS(C)(=O)=O)C3)cc1-c1ncccc1F [Compound 260],1 to 10 nM
7,Cc1ccc(Nc2ncnc3c2CCN(S(C)(=O)=O)C3)cc1C(=O)Nc1ccccc1 [Compound 301],100 to 1000 nM
8,Cc1ccc(Nc2ncnc3c2CCN(S(C)(=O)=O)C3)cc1-c1ccc(F)cn1 [Compound 298],10 to 100 nM
9,Cc1ccc(Nc2cccc3c2CCN(S(C)(=O)=O)C3)cc1-c1ncc(-c2ccc(C#N)cc2)[nH]1 [Compound 101],0.001 to 1 nM
10,Cc1ccc(Nc2cccc3c2CCN(S(C)(=O)=O)C3)cc1-c1ccc(C(=O)NCC(C)O)cc1 (centres unmarked) [Compound 148],100 to 1000 nM
11,Cc1ccc(Nc2cccc3c2CCN(CCC(F)(F)F)C3)cc1-c1ccc(F)cn1 [Compound 252],0.001 to 1 nM
12,COc1cncc(-c2cc(Nc3cccc4c3CCN(S(C)(=O)=O)C4)ccc2C)n1 [Compound 255],100 to 1000 nM
13,Cc1ccc(Nc2cccc3c2CCN(S(C)(=O)=O)C3)cc1-c1ccc(F)cn1 [Compound 164],0.001 to 1 nM
14,Cc1ccc(Nc2nccc3c2CCN(S(C)(=O)=O)C3)cc1-c1ccc(C#N)cc1 [Compound 125],10 to 100 nM
15,Cc1ccc(-c2nc(Nc3cccc4c3CCN(C3CS(=O)(=O)C3)C4)ccc2Cl)nc1 [Compound 317],0.001 to 1 nM
16,COc1cnc(-c2cc(Nc3cccc4c3CCN(S(C)(=O)=O)C4)ccc2C)cn1 [Compound 190],1 to 10 nM
17,COc1ccc(-c2nc(Nc3cccc4c3CCN(S(=O)(=O)C(C)C)C4)ccc2C)nn1 [Compound 319],1 to 10 nM
18,CNc1ncc2nc(-c3cc(Nc4cccc5c4CCN(S(C)(=O)=O)C5)ccc3C)sc2n1 [Compound 94],10 to 100 nM
19,Cc1ccc(-c2cc(Nc3cccc4c3CCN(CC(C)(F)F)C4)ccc2C)nc1 [Compound 224],0.001 to 1 nM
20,Cc1ccc(-c2cc(Nc3cccc4c3CCN(C[C@H](O)CO)C4)ccc2C)nc1 [Compound 210],1 to 10 nM

row,Compound,IC50
1,Cc1cnc(-c2cc(Nc3cccc4c3CCN(S(C)(=O)=O)C4)ccc2C)cc1C [Compound 241],0.001 to 1 nM
2,CNC(=O)c1ccc(Nc2cccc3c2CCN(S(C)(=O)=O)C3)cc1-c1ccc(C#N)cc1 [Compound 180],100 to 1000 nM
3,Cc1ccc(Nc2ncnc3c2CCN(C2CCS(=O)(=O)CC2)C3)cc1-c1cc2ccccc2cn1 [Compound 342],1 to 10 nM
4,Cc1ccc(Nc2cccc3c2CCN(S(C)(=O)=O)C3)cc1-c1ncc(-c2ccc(CN(C)C)cc2)[nH]1 [Compound 106],1 to 10 nM
5,Cc1ccc(Nc2nccc3c2CCN(C2CCS(=O)(=O)CC2)C3)cc1-c1cc2ccccc2cn1 [Compound 344],0.001 to 1 nM
6,Cc1ccc(-c2cc(Nc3cccc4c3CCN([C@H]3CCS(=O)(=O)C3)C4)ccc2C)nc1 [Compound 280],0.001 to 1 nM
7,CS(=O)(=O)N1CCc2c(cccc2Nc2cnc(Cl)c(-c3ccc(C#N)cc3)c2)C1 [Compound 175],10 to 100 nM
8,Cc1ccc(Nc2cccc3c2CCN(S(=O)(=O)CCN(C)C)C3)cc1-c1ncccc1F [Compound 289],0.001 to 1 nM
9,Cc1ccc(Nc2cccc3c2CCN(S(C)(=O)=O)C3)cc1-c1ccc(CNCC(O)CO)cc1 (centres unmarked) [Compound 157],1000 to 10000 nM
10,COc1ccc(-c2cc(Nc3cccc4c3CCN([C@@H]3CCS(=O)(=O)C3)C4)ccc2C)nn1 [Compound 321],1 to 10 nM
11,Cc1ccc(-c2nc(Nc3cccc4c3CCN(CCS(C)(=O)=O)C4)ccc2Cl)nc1 [Compound 278],1 to 10 nM
12,Cc1ccc(Nc2cccc3c2CCN(S(C)(=O)=O)C3)cc1-c1ccc(N(C)C)nn1 [Compound 254],1 to 10 nM
13,Cc1ccc(Nc2cccc3c2CCN(CC(C)(C)O)C3)cc1-c1ccc(C#N)cn1 [Compound 199],1 to 10 nM
14,Cc1ccc(Nc2cccc3c2CCN([C@H]2CCS(=O)(=O)C2)C3)cc1-c1ncccc1F [Compound 286],0.001 to 1 nM
15,Cc1ccc(-c2cc(Nc3cccc4c3CCN(CC(F)(F)CO)C4)ccc2C)nc1 [Compound 212],0.001 to 1 nM
16,Cc1ccc(Nc2cccc3c2CCN(S(C)(=O)=O)C3)cc1-c1ccc(C#N)nn1 [Compound 207],10 to 100 nM
17,Cc1ccc(-c2cc(Nc3cccc4c3CCN(CC(C)(C)C)C4)ccc2C)nc1 [Compound 213],1 to 10 nM
18,Cc1ccc(-c2cc(Nc3cccc4c3CCN([C@@H]3CCS(=O)(=O)C3)C4)ccc2C)nc1 [Compound 279],0.001 to 1 nM
19,Cc1ccc(Nc2cccc3c2CCN(CCS(C)(=O)=O)C3)cc1-c1ccc(F)cn1 [Compound 232],1 to 10 nM
20,COc1ccnc(-c2cc(Nc3cccc4c3CCN(S(C)(=O)=O)C4)ccc2C)n1 [Compound 239],10 to 100 nM

# Further lines, results first:
row,IC50,Compound
1,0.001 to 1 nM,O=C(N1CCc2c(cccc2Nc2ccc(Cl)c(-c3ncc(-c4ccccc4)[nH]3)c2)C1)C1(O)CC1 [Compound 74]
2,100 to 1000 nM,CC(C(=O)O)N1CCc2c(Nc3ccc(Cl)c(-c4nc(-c5ccccc5)c[nH]4)c3)cccc2C1=O (centres unmarked) [Compound 77]
3,1 to 10 nM,CC1(N2CCc3c(cccc3Nc3ccc(Cl)c(-c4ncc(-c5ccccc5)[nH]4)c3)C2)CC1 [Compound 80]
4,0.001 to 1 nM,Clc1ccc(Nc2cccc3c2CCN(C2CCOCC2)C3)cc1-c1ncc(-c2ccccc2)[nH]1 [Compound 29]
5,100 to 1000 nM,CS(=O)(=O)N1CCc2c(cccc2Nc2ccc(Cl)c(-c3nc(-c4ccccc4)co3)c2)C1 [Compound 96]
6,0.001 to 1 nM,CN(C)CC(C)(C)CN1CCc2c(cccc2Nc2ccc(Cl)c(-c3ncc(-c4ccccc4)[nH]3)c2)C1 [Compound 54]
7,0.001 to 1 nM,FC(F)(F)CN1CCc2c(cccc2Nc2ccc(Cl)c(-c3ncc(-c4ccccc4)[nH]3)c2)C1 [Compound 62]
8,10 to 100 nM,CS(=O)(=O)N1CCc2c(cccc2Nc2ccc(Cl)c(-c3ccc(C#N)cc3)c2)C1 [Compound 134]
9,1 to 10 nM,CN(C)c1ccc2nc(-c3cc(Nc4cccc5c4CCN(S(C)(=O)=O)C5)ccc3Cl)[nH]c2c1 [Compound 16]
10,0.001 to 1 nM,CC(CO)(CO)C(=O)N1CCc2c(cccc2Nc2ccc(Cl)c(-c3ncc(-c4ccccc4)[nH]3)c2)C1 [Compound 2]
11,1 to 10 nM,NS(=O)(=O)N1CCc2c(cccc2Nc2ccc(Cl)c(-c3ncc(-c4ccccc4)[nH]3)c2)C1 [Compound 13]
12,0.001 to 1 nM,O=C1CCC(N2CCc3c(cccc3Nc3ccc(Cl)c(-c4ncc(-c5ccccc5)[nH]4)c3)C2)CC1 [Compound 33]
13,0.001 to 1 nM,Cc1ccc(Nc2cccc3c2CCN(S(C)(=O)=O)C3)cc1-c1nc2ccccc2[nH]1 [Compound 5]
14,10 to 100 nM,O=C(O)CCN1CCc2c(Nc3ccc(Cl)c(-c4nc(-c5ccccc5)c[nH]4)c3)cccc2C1=O [Compound 50]
15,0.001 to 1 nM,CCN1CCC(N2CCc3c(cccc3Nc3ccc(Cl)c(-c4ncc(-c5ccccc5)[nH]4)c3)C2)CC1 [Compound 6]
16,1 to 10 nM,OC[C@H](O)[C@@H](O)CN1CCc2c(cccc2Nc2ccc(Cl)c(-c3ncc(-c4ccccc4)[nH]3)c2)C1 [Compound 48]

row,IC50,Compound
1,0.001 to 1 nM,CS(=O)(=O)N1CCc2c(cccc2Nc2ccc(Cl)c(C(=O)Nc3ccccc3)n2)C1 [Compound 226]
2,1 to 10 nM,CC(C)C(=O)N1CCc2c(cccc2Nc2ccc(Cl)c(-c3ncc(-c4ccccc4)[nH]3)c2)C1 [Compound 55]
3,0.001 to 1 nM,C[C@@H](O)C(=O)N1CCc2c(cccc2Nc2ccc(Cl)c(-c3ncc(-c4ccccc4)[nH]3)c2)C1 [Compound 8]
4,10 to 100 nM,Cc1ccc(Nc2cccc3c2CCN(C[C@H](O)CO)C3=O)cc1-c1nc2ccccc2[nH]1 [Compound 81]
5,1 to 10 nM,CN1CCC(N2CCc3c(cccc3Nc3ccc(Cl)c(-c4ncc(-c5ccccc5)[nH]4)c3)C2)CC1 [Compound 41]
6,100 to 1000 nM,Cc1ccc(Nc2cccc3c2CCN(S(C)(=O)=O)C3)cc1-c1ccccc1 [Compound 115]
7,0.001 to 1 nM,Cc1ccc(-c2cc(Nc3cccc4c3CCN(CC(C)(C)O)C4)ccc2C)nc1 [Compound 201]
8,0.001 to 1 nM,Cc1ccc(Nc2cccc3c2CCN(CC(F)(F)CO)C3)cc1-c1nc2ccccc2[nH]1 [Compound 85]
9,1 to 10 nM,CC1(C)OC[C@H](CN2CCC(N3CCc4c(cccc4Nc4ccc(Cl)c(-c5ncc(-c6ccccc6)[nH]5)c4)C3)CC2)O1 [Compound 28]
10,0.001 to 1 nM,Cc1ccc(Nc2cccc3c2CCN(S(C)(=O)=O)C3)cc1-c1ccccn1 [Compound 189]
11,1 to 10 nM,Cc1ccc(Nc2cccc3c2CCN(CCS(C)(=O)=O)C3)cc1-c1ccccn1 [Compound 262]
12,10 to 100 nM,O=C(O)CN1CCc2c(cccc2Nc2ccc(Cl)c(-c3nc(-c4ccccc4)c[nH]3)c2)C1 [Compound 53]
13,0.001 to 1 nM,Clc1ccc(Nc2cccc3c2CCN(CC2CCOCC2)C3)cc1-c1ncc(-c2ccccc2)[nH]1 [Compound 39]
14,0.001 to 1 nM,Clc1ccc(Nc2cccc3c2CCN(C2CC2)C3)cc1-c1ncc(-c2ccccc2)[nH]1 [Compound 82]
15,0.001 to 1 nM,Cc1ccc(Nc2cccc3c2CCN(CCS(C)(=O)=O)C3)cc1-c1cc2ccccc2cn1 [Compound 315]

# Same assay, conditions: enzymatic and cellular assays for the inhibition of hedgehog signaling pathways; read-out: IC50 Ranges
row,IC50,Compound
1,1 to 10 nM,CCOc1ccc(-c2cc(Nc3cccc4c3CCN(C3CCS(=O)(=O)C3)C4)ccc2C)nn1 (centres unmarked) [Compound 323]
2,1 to 10 nM,Cc1ccc(Nc2cccc3c2CCN(S(C)(=O)=O)C3)cc1-c1ccc(C(F)(F)F)cn1 [Compound 167]
